Reference: publication PMC8580996, “2-Oxoglutarate derivatives can selectively enhance or inhibit the activity of human oxygenases” (Nature Communications, 2021)
Values joined by “and” are separate entries in the source; they are usually repeats but may differ in a detail not shown here. Identical values can stand only once. Like-named read-outs stand apart in the source and are kept apart here.

Legend:
[1] = molecular target: T1, AspH (Homo sapiens, UniProt Q12797); design: method as in PMID 34163896; conditions: hFX-CP101–119 substrate, 330 μM 2OG or 2OG derivative, t = 15 min; cited from earlier work
T1 construct: the tetratricopeptide repeat domain (His6-AspH315-758), was produced and purified as previously reported; made in house
T1 sequence (Q12797 315-758): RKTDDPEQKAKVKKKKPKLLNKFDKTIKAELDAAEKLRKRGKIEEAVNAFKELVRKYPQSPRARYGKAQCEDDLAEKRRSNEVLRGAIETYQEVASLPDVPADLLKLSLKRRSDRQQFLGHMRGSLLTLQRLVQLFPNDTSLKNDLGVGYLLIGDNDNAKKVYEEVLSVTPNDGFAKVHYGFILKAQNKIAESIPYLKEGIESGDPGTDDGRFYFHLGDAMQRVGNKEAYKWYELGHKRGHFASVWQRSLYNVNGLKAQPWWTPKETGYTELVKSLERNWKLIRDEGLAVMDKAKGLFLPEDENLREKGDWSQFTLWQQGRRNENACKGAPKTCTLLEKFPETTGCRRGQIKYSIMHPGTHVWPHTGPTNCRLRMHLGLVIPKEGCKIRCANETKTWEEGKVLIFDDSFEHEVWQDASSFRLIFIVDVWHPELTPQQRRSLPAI

[2] = molecular target: T2, FIH (Homo sapiens, UniProt Q9NWT6); test: SPE-MS FIH turnover (cosubstrate) assay in the absence of 2OG; type: biochemical; conditions: 330 μM 2OG or 2OG derivative, no 2OG, t = 15 min
T2 sequence (Q9NWT6 whole entry): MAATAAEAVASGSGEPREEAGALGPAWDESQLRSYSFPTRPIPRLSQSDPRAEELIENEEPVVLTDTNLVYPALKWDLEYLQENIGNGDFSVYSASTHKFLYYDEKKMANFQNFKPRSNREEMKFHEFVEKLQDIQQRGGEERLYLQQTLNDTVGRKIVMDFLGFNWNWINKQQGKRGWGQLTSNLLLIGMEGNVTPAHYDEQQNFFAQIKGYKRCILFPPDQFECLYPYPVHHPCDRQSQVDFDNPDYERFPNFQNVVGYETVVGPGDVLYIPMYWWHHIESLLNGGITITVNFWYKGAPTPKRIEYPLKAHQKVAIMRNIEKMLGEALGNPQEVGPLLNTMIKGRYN
Method: The ability of 35 synthetic C3/C4-substituted 2OG derivatives, which were prepared via a reported procedure (Supplementary Fig. 1 and Supplementary Methods)[21], to sustain catalysis by purified recombinant FIH in the absence of 2OG was examined using an assay directly monitoring substrate depletion and product formation (i.e., a +16 Da mass shift) by solid-phase extraction (SPE) coupled to mass spectrometry (SPE-MS)[44],[45]. […] (i.e. CA1–20)[47], were used as FIH substrates to test for potential substrate-dependent differences in terms of cosubstrate analog selectivity.
Assay samples were aspirated under vacuum for 0.6 s and loaded onto a C4 SPE cartridge. After loading, the C4 SPE cartridge was washed with 0.1%v/v aqueous formic acid to remove non-volatile buffer salts (5.5 s, 1.5 mL/min). […] The mass spectrometer was operated using the MassHunter Workstation B.08.00 software (Agilent), the mass spectrometer parameters were: capillary voltage (4000 V), nozzle voltage (1000 V), fragmentor voltage (365 V), gas temperature (280 °C), gas flow (13 L/min), sheath gas temperature (350 °C), sheath gas flow (12 L/min). […] Data were exported into Microsoft Excel and used to calculate the % conversion of the hydroxylation reaction using the equation: % conversion = 100 × (integral product peptide)/(integral substrate peptide+integral product peptide). […] Z′-factors were calculated according to the cited literature using Microsoft Excel (Supplementary Fig. 26)[83].

[3] = molecular target: T2, FIH; test: SPE-MS FIH inhibition assay; type: biochemical; on IC50 FIH: 0.15 µM FIH
Method: FIH inhibition assays were performed as described, using cosubstrate/cofactor stock solutions (L-ascorbic acid, LAA: 50 mM in MQ-grade water; 2-oxoglutarate, 2OG: 10 mM in MQ-grade water; ammonium iron(II) sulfate hexahydrate, FAS, (NH4)2Fe(SO4)2·6H2O: 400 mM in 20 mM HCl diluted to 1 mM in MQ-grade water), which were freshly prepared from commercially-sourced solids (Sigma Aldrich).
Dimethyl sulfoxide (DMSO) solutions of the 2OG derivatives were dry dispensed across 384-well polypropylene assay plates (Greiner) in an approximately threefold and 11-point dilution series (100 μM top concentration; the final DMSO assay concentration was kept constant at 0.5%v/v) using an ECHO 550 acoustic dispenser (Labcyte). […] Each reaction was performed in technical duplicates in adjacent wells of the assay plates; additionally, assays were performed in two independent duplicates on different days using different inhibitor solutions.
The Enzyme Mixture (25 μL/well), containing 0.3 μM His6-FIH in buffer (50 mM Tris, 50 mM NaCl, pH 7.5), was dispensed across the inhibitor-containing 384-well assay plates with a multidrop dispenser (ThermoFischer Scientific) at 20 °C under an ambient atmosphere. The plates were subsequently centrifuged (1000 rpm, 15 s) and incubated for 15 min at 20 °C. The Substrate Mixture (25 μL/well), containing 10.0 μM HIF-1α788–822[37] substrate, 200 μM LAA, 20.0 μM 2OG, and 20.0 μM FAS in buffer (50 mM Tris, 50 mM NaCl, pH 7.5), was added using the multidrop dispenser. The plates were centrifuged (1000 rpm, 15 s) and after incubating for 15 min, the enzyme reaction was stopped by the addition of 10%v/v aqueous formic acid (5 μL/well). The plates were then centrifuged (1000 rpm, 30 s) and analyzed by MS.
MS-analyses were performed using a RapidFire RF 365 high-throughput sampling robot (Agilent) attached to an iFunnel Agilent 6550 accurate-mass quadrupole time-of-flight mass spectrometer operated in the positive ionization mode. Assay samples were aspirated under vacuum for 0.6 s and loaded onto a C4 SPE cartridge. After loading, the C4 SPE cartridge was washed with 0.1%v/v aqueous formic acid to remove non-volatile buffer salts (5.5 s, 1.5 mL/min). […] The mass spectrometer was operated using the MassHunter Workstation B.08.00 software (Agilent), the mass spectrometer parameters were: capillary voltage (4000 V), nozzle voltage (1000 V), fragmentor voltage (365 V), gas temperature (280 °C), gas flow (13 L/min), sheath gas temperature (350 °C), sheath gas flow (12 L/min). The m/z + 2 (for CA1–20) or +3 (for HIF-1α788–822) charge states of the peptide (substrate) and the hydroxylated peptide (product) were used to extract ion chromatogram data, peak areas were integrated using RapidFire Integrator 4.3.0 (Agilent). Data were exported into Microsoft Excel and used to calculate the % conversion of the hydroxylation reaction using the equation: % conversion = 100 × (integral product peptide)/(integral substrate peptide+integral product peptide). […] Z′-factors were calculated according to the cited literature using Microsoft Excel (Supplementary Fig. 26)[83].
SPE-MS FIH inhibition assays were performed as described in the Methods section.
Tris, 50 mM NaCl, pH 7.5, 20 °C). […]

[4] = molecular target: T1, AspH; conditions: cited from earlier work
[5] = […] FIH, 5.0 μM HIF-1α788-822, 10 μM 2OG, mean of two runs
[6] = 0.05 μM AspH, 1.0 μM hFX-CP101-119, 3.0 μM 2OG, ref 21 (supplementary ref 1)
[7] = source data of Table 3, single independent replicates, read-out: FIH IC50, independent replicate
[8] = […] FIH, 5.0 μM HIF-1α788-822, 10 μM 2OG, mean of two runs, read-out: IC50 FIH

FIH activity, %-substrate conversion ([2]; CA1–20 substrate) | FIH activity, %-substrate conversion ([2]; HIF-1α788–822 substrate) | IC50 FIH [3, 5] | IC50 [3, 7] | IC50 [3, 8] [µM] | selectivity of AspH over FIH inhibition as judged by IC50-values [3] | FIH IC50, independent replicate ([3]; source data of Table 3, single independent replicates) | SMILES | AspH activity, %-substrate conversion [1] [%] | IC50 ([4]; NOFD control, supplementary ref 13) [µM] | IC50 [4, 6] [µM] | IC50 AspH [4, 6]
~20% | ~2% |  | 4.54 µM and 4.52 µM |  |  |  | CCC(CC(=O)O)C(=O)C(=O)O (stereo not shown) [compound 2, 3-ethyl 2OG] | <1 |  | ~1.2 | 
~10% | < 1% |  | 2.64 µM and 2.68 µM |  |  |  | CCCC(CC(=O)O)C(=O)C(=O)O (stereo not shown) [compound 3, 3-propyl-2OG] | <1 |  | ~5.7 | 
^c<1% ^d<1% | ^c<1% ^d<1% |  |  | 5.7 |  |  | O=C(O)CC(CCCc1ccccc1)C(=O)C(=O)O (stereo not shown) [compound 5] | <1 |  |  | 
^c<1% ^d<1% | ^c<1% ^d<1% |  |  | 3.6 |  |  | COc1ccc(CC(CC(=O)O)C(=O)C(=O)O)cc1 (stereo not shown) [compound 9] | <1 |  |  | 
^c<1% ^d<1% | ^c<1% ^d<1% |  | 1.83 µM and 1.86 µM |  |  |  | CC1(C)c2ccccc2-c2ccc(CC(CC(=O)O)C(=O)C(=O)O)cc21 (stereo not shown) [compound 11, 3-((9,9-dimethyl-9H-fluoren-2-yl)methyl)-2OG] | <1 |  | 4.3 | 
~3% | < 1% |  |  |  | ~ 70 fold |  | CC(C)CC(CC(=O)C(=O)O)C(=O)O (stereo not shown) [compound 16, 4-isobutyl-2OG] | <1 |  | ~0.5 | 
^c<1% ^d<1% | ^c<1% ^d<1% |  |  | 38.9 |  |  | CC(C)(C)CCC(CC(=O)C(=O)O)C(=O)O (stereo not shown) [compound 17] | <1 |  |  | 
^c<1% ^d<1% | ^c<1% ^d<1% |  | 3.42 µM and 3.64 µM |  |  |  | O=C(O)C(=O)CC(Cc1ccccc1)C(=O)O (stereo not shown) [compound 19, 4-benzyl-2OG] | <1 |  |  | 
^c<1% ^d<1% | ^c<1% ^d<1% |  |  | 2.5 |  |  | O=C(O)C(=O)CC(Cc1ccc2ccccc2c1)C(=O)O (stereo not shown) [compound 20] | <1 |  |  | 
^c<1% ^d<1% | ^c<1% ^d<1% | inactive |  |  |  |  | O=C(O)C(=O)C12CCC(C(=O)O)(CC1)CC2 [compound 25] | ~8 |  |  | inactive

Continued, compound first:

SMILES | FIH activity, %-substrate conversion ([2]; CA1–20 substrate) | FIH activity, %-substrate conversion ([2]; HIF-1α788–822 substrate) | IC50 FIH [3, 5] | IC50 [3, 7] | IC50 [3, 8] [µM] | selectivity of AspH over FIH inhibition as judged by IC50-values [3] | FIH IC50, independent replicate ([3]; source data of Table 3, single independent replicates) | AspH activity, %-substrate conversion [1] [%] | IC50 ([4]; NOFD control, supplementary ref 13) [µM] | IC50 [4, 6] [µM] | IC50 AspH [4, 6]
O=C(O)C(=O)[C@@H]1[C@@H](C(=O)O)[C@@H]2C=C[C@H]1C2 (racemic) [compound 24] | ^c<1% ^d<1% | ^c<1% ^d<1% | inactive |  |  |  |  | <1 |  |  | 
O=C(O)C(=O)N[C@H](Cc1ccccc1)C(=O)O [NOFD, N-oxalyl-D-phenylalanine, reference compound] |  |  |  |  |  |  |  |  | 15.5 |  | 
CC(C)(C)CCC(CC(=O)O)C(=O)C(=O)O (stereo not shown) [compound 4] | ^c<1% ^d<1% | ^c<1% ^d<1% |  |  | 31 |  |  | <1 |  |  | 
O=C(O)CC(Cc1ccccc1)C(=O)C(=O)O (stereo not shown) [compound 6] | ^c<1% ^d<1% | ^c<1% ^d<1% |  | 5.76 µM and 7.01 µM | 6.4 |  |  | <1 |  |  | 
O=C(O)CC(Cc1ccc(F)cc1)C(=O)C(=O)O (stereo not shown) [compound 7] | ^c<1% ^d<1% | ^c<1% ^d<1% |  |  | 7.5 |  |  | <1 |  |  | 
O=C(O)CC(Cc1ccc(OC(F)(F)F)cc1)C(=O)C(=O)O (stereo not shown) [compound 8] | ^c<1% ^d<1% | ^c<1% ^d<1% |  |  | 12.7 |  |  | <1 |  |  | 
Cc1cc(C)cc(CC(CC(=O)O)C(=O)C(=O)O)c1 (stereo not shown) [compound 10] | ^c<1% ^d<1% | ^c<1% ^d<1% | inactive |  |  |  |  | <1 |  |  | 
CCCC(CC(=O)C(=O)O)C(=O)O (stereo not shown) [compound 15, 4-propyl-2OG] | ~70% | ~5% |  | 15.2 µM and 14.3 µM | 14.8 |  |  | <1 |  |  | 
CC1(C)C(C(=O)O)C1C(=O)C(=O)O (stereo not shown) [compound 21] | ^c<1% ^d<1% | ^c<1% ^d<1% |  |  | 19.4 |  |  | <1 |  |  | 
O=C(O)C(=O)C1(C(=O)O)CC1 [compound 23] | ^c<1% ^d<1% | ^c<1% ^d<1% | inactive |  |  |  |  | <1 |  |  | 
O=C(O)C(=O)c1ccccc1C(=O)O [compound 26] | ^c<1% ^d<1% | ^c<1% ^d<1% | inactive |  |  |  |  | <1 |  |  | inactive
O=C(O)C(=O)c1ccc(C(=O)O)s1 [compound 35] | ^c<1% ^d<1% | ^c<1% ^d<1% | inactive |  |  |  | not inhibiting | ~15 |  |  | 
